Assays:
Format in all cases: biochemical
[1] = target: T1, abl (Homo sapiens, UniProt P00519); test: abl kinase assay (ELISA or Alphascreen); conditions: read-out: abl inhibition of enzyme activity
T1 sequence (P00519 242-493 limits assumed): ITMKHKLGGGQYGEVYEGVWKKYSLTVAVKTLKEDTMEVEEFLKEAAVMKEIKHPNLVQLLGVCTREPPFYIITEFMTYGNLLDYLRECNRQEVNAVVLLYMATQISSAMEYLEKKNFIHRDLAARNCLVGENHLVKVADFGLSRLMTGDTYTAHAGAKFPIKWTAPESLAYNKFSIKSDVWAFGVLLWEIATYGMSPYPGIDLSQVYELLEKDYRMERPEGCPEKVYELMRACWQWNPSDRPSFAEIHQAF
Method: (§1) Kinase assays were performed in a 96 well capture-based ELISA assay or in 384 well Optiplates (Packard) using an Alphascreen Protein Tyrosine Kinase kit. In either case using approximately 1.5 μg of affinity purified PTK domain in the presence of 50 mM HEPES, pH 7.5, 10 mM MgCl2, 150 mM NaCl and 10 μM-1 mM ATP. The biotinylated substrate biotin-EGPWLEEEEEAYGWMDF-NH2 (SEQ ID NO:9) (final concentration 5 μM) was used as substrate. In the ELISA assay tyrosine phosphorylation was quantitated following transfer to an avidin coated ELISA plate using peroxidase-linked anti-phosphotyrosine antibody PY20. In the Alphascreen assay, Alphascreen phosphotyrosine acceptor beads followed by streptavidin donor beads were added under subdued light. The ELISA plates were read on a BMG Fluorostar, the Alphascreen plates were read on a Packard Fusion Alpha. Inhibitors were added to the assays fifteen minutes prior to the addition of ATP. Inhibitors were added in aqueous […] concentrations never exceeding 1%.

[2] = target: T2, Zap70 (Homo sapiens, UniProt P43403); test: Zap70 kinase assay (ELISA or Alphascreen); conditions: read-out: Zap70 inhibition of enzyme activity
T2 sequence (P43403 338-600 limits assumed): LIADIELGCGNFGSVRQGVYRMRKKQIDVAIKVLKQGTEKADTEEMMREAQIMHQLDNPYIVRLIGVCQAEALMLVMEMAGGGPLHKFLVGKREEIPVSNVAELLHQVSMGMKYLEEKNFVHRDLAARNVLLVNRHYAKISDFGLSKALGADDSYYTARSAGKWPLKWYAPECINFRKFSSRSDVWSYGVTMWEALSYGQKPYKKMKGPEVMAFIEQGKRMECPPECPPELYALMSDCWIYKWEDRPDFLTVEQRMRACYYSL
Method: as §1

[3] = target: fes (Homo sapiens, UniProt P07332); test: fes kinase assay (ELISA or Alphascreen); conditions: read-out: fes inhibition of enzyme activity
Method: as §1

[4] = target: T3, fms (Homo sapiens, UniProt P07333); test: fms kinase assay (ELISA or Alphascreen); conditions: read-out: fms inhibition of enzyme activity
T3 sequence (P07333 582-910 limits assumed): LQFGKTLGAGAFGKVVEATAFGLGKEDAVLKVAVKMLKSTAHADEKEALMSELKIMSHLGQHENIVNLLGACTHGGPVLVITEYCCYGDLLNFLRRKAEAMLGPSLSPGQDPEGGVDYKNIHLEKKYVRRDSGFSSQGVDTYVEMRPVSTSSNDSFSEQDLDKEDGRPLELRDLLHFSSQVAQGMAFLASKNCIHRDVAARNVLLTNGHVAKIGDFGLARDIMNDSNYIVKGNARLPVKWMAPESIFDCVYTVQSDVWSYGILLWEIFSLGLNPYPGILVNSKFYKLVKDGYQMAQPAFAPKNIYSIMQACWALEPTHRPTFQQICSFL
Method: as §1

[5] = target: T4, human JAK2 (Homo sapiens, UniProt O60674); test: JAK2 kinase assay (ELISA or Alphascreen); conditions: read-out: Jak2 inhibition of enzyme activity
T4 construct: The kinase domain of human JAK2 was amplified from U937mRNA; His tag (from the pFastBac HTc vector) (N); made in house; host or cells: baculovirus; Sf9 for virus, High Five insect cells for production
Description: The kinase domain of human JAK2 was amplified from U937mRNA using the polymerase chain reaction with the following primers: […]
JAK2 PCR products were doped into the pFastBac HTc expression vector (Gibco) via the Sal I and Not I sites. The JAK2 plasmid was than transformed into competent DH10Bac cells (Gibco), and the recombinant baculovirus produced prepared for transfection into Sf9 insect cells.
(§2) Baculovirus preparations from each of the JAK family members were infected into five liters of High Five cells (Invitrogen) grown in High Five serum free medium (Invitrogen) to a cell density of approximately 1-2×10^6 cells/ml. Cells are infected with virus at a MOI of 0.8-3.0. Cells were harvested and lysed. JAK kinase domains were purified by affinity chromatography on a Probond (Invitrogen) nickel chelate affinity column.
as §1

[6] = target: T5, human JAK3 (Homo sapiens, UniProt P52333); test: JAK3 kinase assay (ELISA or Alphascreen); conditions: read-out: Jak3 inhibition of enzyme activity
T5 construct: The kinase domain of human JAK3 was amplified from U937mRNA; His tag (from the pFastBac HTb vector) (N); made in house; host or cells: baculovirus; Sf9 for virus, High Five insect cells for production
Description: The kinase domain of human JAK3 was amplified from U937mRNA using the polymerase chain reaction with the following primers: […]
JAK3 PCR products were cloned into the pFastBac HTb expression vector (Gibco) via the Xho I and Kpn I sites. The JAK3 plasmid was then transformed into competent DH10Bac cells (Gibco), and the recombinant baculovirus produced prepared for transfection into Sf9 insect cells.
as §2, §1

T5 sequence (P52333 822-1111 limits assumed): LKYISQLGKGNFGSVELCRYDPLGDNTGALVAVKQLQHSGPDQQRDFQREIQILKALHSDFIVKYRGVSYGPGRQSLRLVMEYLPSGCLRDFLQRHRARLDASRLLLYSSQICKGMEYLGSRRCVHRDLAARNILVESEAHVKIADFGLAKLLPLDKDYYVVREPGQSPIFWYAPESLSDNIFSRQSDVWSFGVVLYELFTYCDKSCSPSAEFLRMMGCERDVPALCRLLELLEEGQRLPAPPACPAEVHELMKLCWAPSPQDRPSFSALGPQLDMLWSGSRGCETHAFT
Sequence of fes (P07332 561-822 limits assumed, species assumed): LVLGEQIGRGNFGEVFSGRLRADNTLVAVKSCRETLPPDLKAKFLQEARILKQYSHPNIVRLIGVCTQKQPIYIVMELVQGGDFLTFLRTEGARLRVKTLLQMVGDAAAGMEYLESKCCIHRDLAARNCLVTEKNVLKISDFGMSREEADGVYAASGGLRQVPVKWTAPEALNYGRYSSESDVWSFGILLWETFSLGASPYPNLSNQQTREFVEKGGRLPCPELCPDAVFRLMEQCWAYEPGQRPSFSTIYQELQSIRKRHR
T4 sequence (O60674 849-1124 limits assumed): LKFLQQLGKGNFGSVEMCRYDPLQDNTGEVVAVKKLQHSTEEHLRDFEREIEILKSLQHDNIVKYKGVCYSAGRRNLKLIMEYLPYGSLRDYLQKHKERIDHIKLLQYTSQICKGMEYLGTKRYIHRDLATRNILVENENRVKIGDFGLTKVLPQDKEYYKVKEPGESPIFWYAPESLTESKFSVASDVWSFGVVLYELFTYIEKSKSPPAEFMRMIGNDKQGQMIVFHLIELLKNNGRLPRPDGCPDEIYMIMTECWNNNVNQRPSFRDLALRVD

Compound	inhibition at 10 µM [1] [%]	inhibition at 10 µM [2] [%]	inhibition at 10 µM [3] [%]	inhibition at 10 µM [4] [%]	inhibition at 10 µM [5] [%]	inhibition at 10 µM [6] [%]
COc1cc(-c2cncc(C(=O)NC(CO)C(C)C)c2)c(Cl)c(OC)c1OC (stereo not shown)	< 50	< 50		< 50	< 50	< 50
COc1ccc(NC(=O)c2cncc(-c3cc(OC)c(OC)c(OC)c3Cl)c2)c(OC)c1	< 50	< 50	< 50	< 50	< 50	< 50
O=C(Nc1ccccc1)c1cncc(-c2ccc3c(c2)OCO3)c1	< 50	< 50	< 50	< 50	< 50	< 50
Cc1ccc(C)c(NC(=O)c2cncc(-c3ccc4c(c3)OCO4)c2)c1	< 50	< 50	< 50	< 50	< 50	< 50
CN1CCN(c2ccc(CNC(=O)c3cncc(-c4ccc(F)cc4)c3)cc2)CC1		< 50	< 50	< 50	< 50	< 50
CN1CCN(c2ccc(NC(=O)c3cncc(-c4ccc(F)cc4)c3)cc2)CC1	< 50	< 50		< 50	< 50	< 50
O=C(NCCCn1ccnc1)c1cncc(-c2ccc(F)cc2)c1		< 50	< 50	< 50	< 50	< 50
C[C@H](NC(=O)c1cncc(-c2cccnc2)c1)c1ccccc1		< 50	< 50	< 50	< 50	< 50
O=C(NCc1ccco1)c1cncc(-c2cccnc2)c1		< 50	< 50	< 50	< 50	< 50
C[C@@H](NC(=O)c1cncc(-c2ccc(F)cc2)c1)c1ccccc1		< 50	< 50	< 50	< 50	< 50

Next, values leading:

inhibition at 10 µM [1] [%]	inhibition at 10 µM [2] [%]	inhibition at 10 µM [3] [%]	inhibition at 10 µM [4] [%]	inhibition at 10 µM [5] [%]	inhibition at 10 µM [6] [%]	Compound
< 50	< 50	< 50	< 50	< 50		Cc1cc(-c2cncc(C(=O)N[C@@H](C)c3ccccc3)c2)cc(C)c1O
< 50	< 50	< 50		< 50	< 50	COc1ccc(NC(=O)c2cncc(-c3cc(C)c(O)c(C)c3)c2)c(OC)c1
< 50	< 50	< 50		< 50	< 50	COc1cc(-c2cncc(C(=O)NCc3ccc(C)cc3)c2)c(Cl)c(OC)c1OC
	< 50	< 50	< 50	< 50	< 50	O=C(NCc1ccc(Cl)c(Cl)c1)c1cncc(-c2ccc3c(c2)OCO3)c1
< 50	< 50	< 50	< 50	< 50	< 50	O=C(NCCO)c1cncc(-c2cccs2)c1
< 50	< 50	< 50	< 50		< 50	Cc1cc(F)ccc1NC(=O)c1cncc(-c2cccs2)c1
< 50	< 50	< 50		< 50	< 50	Cc1ccccc1NC(=O)c1cncc(-c2ccc(F)cc2)c1
< 50	≥ 50	< 50		< 50	< 50	COc1cccc(-c2cncc(C(=O)Nc3cc(F)ccc3C)c2)c1
